Biological target: 456 kinases (of these 395 non-mutant kinases) (Homo sapiens, UniProt O14976)
Assay: Kinase Profiling (KINOMEscan)
Type: binding
Conditions: GAK; 10 μM

Sequence of 456 kinases (of these 395 non-mutant kinases) (O14976 2-1311 limits assumed, change not shown): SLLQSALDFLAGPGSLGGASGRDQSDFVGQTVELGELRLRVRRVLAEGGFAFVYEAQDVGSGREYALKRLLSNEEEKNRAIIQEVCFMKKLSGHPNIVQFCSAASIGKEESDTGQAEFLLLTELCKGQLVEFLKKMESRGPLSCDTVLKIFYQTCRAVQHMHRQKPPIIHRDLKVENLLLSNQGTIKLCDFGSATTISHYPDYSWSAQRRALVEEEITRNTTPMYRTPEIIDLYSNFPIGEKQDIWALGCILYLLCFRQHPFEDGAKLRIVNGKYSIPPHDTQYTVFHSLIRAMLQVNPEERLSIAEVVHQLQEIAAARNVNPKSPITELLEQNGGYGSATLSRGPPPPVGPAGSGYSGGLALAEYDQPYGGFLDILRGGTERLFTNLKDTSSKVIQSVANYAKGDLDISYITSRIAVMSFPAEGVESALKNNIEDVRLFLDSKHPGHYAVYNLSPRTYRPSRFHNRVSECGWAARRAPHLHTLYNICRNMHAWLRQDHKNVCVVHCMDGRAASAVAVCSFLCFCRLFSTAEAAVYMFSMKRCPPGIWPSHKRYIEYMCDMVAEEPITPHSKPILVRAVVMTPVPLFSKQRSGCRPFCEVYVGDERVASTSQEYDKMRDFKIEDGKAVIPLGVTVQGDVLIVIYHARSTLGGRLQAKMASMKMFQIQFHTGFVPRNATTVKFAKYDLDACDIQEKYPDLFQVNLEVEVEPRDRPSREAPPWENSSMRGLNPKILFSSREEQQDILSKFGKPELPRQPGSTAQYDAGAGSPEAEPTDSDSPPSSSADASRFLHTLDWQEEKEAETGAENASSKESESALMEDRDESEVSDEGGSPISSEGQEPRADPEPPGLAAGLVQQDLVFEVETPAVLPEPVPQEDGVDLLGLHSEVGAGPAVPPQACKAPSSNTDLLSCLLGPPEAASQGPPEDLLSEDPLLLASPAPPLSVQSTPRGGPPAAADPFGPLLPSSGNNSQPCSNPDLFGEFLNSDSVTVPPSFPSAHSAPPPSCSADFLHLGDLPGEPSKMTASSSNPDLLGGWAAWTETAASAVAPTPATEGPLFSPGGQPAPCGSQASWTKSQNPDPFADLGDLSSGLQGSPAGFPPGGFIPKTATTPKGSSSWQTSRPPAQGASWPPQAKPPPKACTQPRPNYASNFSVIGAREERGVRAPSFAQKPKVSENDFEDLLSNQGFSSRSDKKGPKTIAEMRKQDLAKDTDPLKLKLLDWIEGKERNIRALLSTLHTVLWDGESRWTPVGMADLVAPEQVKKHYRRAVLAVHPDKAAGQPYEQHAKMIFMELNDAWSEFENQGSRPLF

## CCc1ccccc1NC(=O)c1c(C)nsc1Nc1cnc2cc(F)ccc2n1 [Example 20, N-(2-Ethylphenyl)-5-[(6-fluoroquinoxalin-2-yl)amino]-3-methyl-1,2-thiazole-4-carboxamide]
  % Ctrl @ 10 μM: 96 % Ctrl
